Tests used:
[1] = molecular target: RTA depurination of yeast ribosomes (Ricinus communis, UniProt P02879); type: biochemical
[2] = tested on: Stx2a holotoxin in Vero cells; type: cell-based
cisplatin toxicity = type: cell-based

CCc1ccccc1-c1ccc(C(=O)O)s1 [RU-NT-102, 5-(2-Ethylphenyl)thiophene-2-carboxylic Acid]
fold improved IC50 relative to CC10501 [1]: 12 fold
inhibition of depurination by Stx2a [2]: did not protect
effect on toxicity of cisplatin (cisplatin toxicity): did not alter

Cc1ccccc1-c1ccc(C(=O)O)s1 [RU-NT-70, 5-(o-Tolyl)thiophene-2-carboxylic Acid]
fold improved IC50 relative to CC10501 [1]: 10 fold

O=C(O)c1ccc(-c2cccc3c2OCC3)s1 [RU-NT-105, 5-(2,3-Dihydrobenzofuran-7-yl)thiophene-2-carboxylic Acid]
protection of yeast ribosomes from depurination [1]: not active

Cc1cccc(C)c1-c1ccc(C(=O)O)s1 [RU-NT-93, 5-(2,6-Dimethylphenyl)thiophene-2-carboxylic Acid]
inhibition of depurination by Stx2a [2]: did not protect
effect on toxicity of cisplatin (cisplatin toxicity): did not alter
